Legend:
Calu-6 cells = assay: In vitro cytotoxicity (Alamar blue growth inhibition), Calu-6; assay type: cell-based, human; details: Calu-6, 48 h
Description: (§1) The effect of experimental compounds on cancer cell growth and viability was measured in a panel of human cancer cells grown in vitro. All cancer cell lines were obtained from the American […]. Cells were maintained in the following media: TUR, H69AR, Calu-6, ME180, and PC3 cells were grown in RPMI medium containing 4.5 g/L glucose, 10% FBS, 4 mM L-glutamine, and 1 mM sodium pyruvate); and HT29 cells were grown in DMEM with 4.5 g/L glucose, 10% FBS, and 6 mM L-glutamine. All cells were grown at 37° C. in 5% CO2 and passaged bi-weekly.
(§2) For cytoxicity studies, cells were seeded into 96-well clear-bottom microtiter plates at the following densities: TUR (7,500 cells/well), HT29 (5,000 cells/well), H69AR (10,000 cells/well), Calu-6 (15,000 cells/well), and ME180 (2,500 cells/well). Cells were maintained at 37° C. with 5% CO2 for 24 hours prior to addition of various experimental compounds. Each condition was measured in triplicate. For compounds dissolved in DMSO, the final DMSO concentration in each well and in the non-drug treated control cells was constant and below 1% in all studies. The number of viable cells was determined after 24, 48, and 72 hours using Alamar blue fluorescence. Briefly, Alamar blue (10 mM) was added to each well for 4 hours, and the number of viable cells estimated by measuring the fluorescence of reduced Alamar blue (530 nm excitation, 590 nm emission). To correct for background fluorescence, cells were treated with 100% DMSO to eliminate all viable cells. The effect of drug on cell growth was determined by calculating the fraction of live cells treated with drug compared to untreated cells: (F1drug treated−F1DMSO killed)/(F1untreated−F1DMSO killed).

H69AR cells = assay: In vitro cytotoxicity (Alamar blue growth inhibition), H69AR; assay type: cell-based, human; details: 48 h
Description: as §1, §2

HT29 cells [1] = assay: In vitro cytotoxicity (Alamar blue growth inhibition), HT29; assay type: cell-based, human; details: HT29, 48 h
Description: as §1, §2

ME180 cells = assay: In vitro cytotoxicity (Alamar blue growth inhibition), ME180; assay type: cell-based, human; details: ME180, 48 h
Description: as §1, §2

PC3 cells = assay: In vitro cytotoxicity (Alamar blue growth inhibition), PC3; assay type: cell-based, human; details: PC3, 48 h
Description: as §1, §2

TUR cells = assay: In vitro cytotoxicity (Alamar blue growth inhibition), TUR; assay type: cell-based, human; details: 48 h
Description: as §1, §2

HT29 cells [2] = assay: Effect of sugar transport inhibitor (phloridzen) on in vitro cytotoxicity; assay type: cell-based, human; details: for GI50: 48 hours
Description: as §1, §2

PC3 (Prostate) xenograft = assay: In vivo tumor growth inhibition, mouse xenograft, PC3; set-up: species or system nude athymic CD-1 mice; details: 80 mg/kg (2/week), IP
Description: (§3) Tumor xenograft studies were performed using nude athymic CD-1 mice (Charles River Laboratories). Human cancer cells (5×10^6 PC3, 5×10^6 HT29, 10^7 Calu-6, and 5×10^6 ME180) were implanted in the hind flank of nude mice. Tumor growth was measured using calipers and tumor volume calculated using the formula: (width^2×(length/2)). Tumor volume was measured 3 days per week. Animal weight was measured 3 days per week to assess compound toxicity.
(§4) Compounds were tested for in vivo tumor growth inhibition as follows. Animals bearing tumors 100-200 mg were sorted into groups (5-8 animals) with similar average tumor mass per group. Drug doses were administered by intraperitoneal (IP) injection (0.5 mL). Test compounds were dissolved in phosphate buffered saline (PBS) and concentration adjusted for animal weight. Actual drug concentrations in formulated doses were verified by quantitative nitrogen detection. Animals were dosed every 7 days for 21 days in most studies. In several studies, animals were dosed twice weekly (days 0, 4, 7, 10, 14, etc.). Tumor volume and animal weight were measured on days 0, 2, 4, 7, 9, 11, 14, 16, 18, 21, 23, 25, and 28. […] Tumor volume at the end of the study was calculated as a percentage of the tumor volume on day 0. […]

HT29 (Colon) xenograft = assay: In vivo tumor growth inhibition, mouse xenograft, HT29; set-up: species or system nude athymic CD-1 mice; details: IP
Description: as §3
(§5) Compounds were tested for in vivo tumor growth inhibition as follows. Animals bearing tumors 100-200 mg were sorted into groups (5-8 animals) with similar average tumor mass per group. Drug doses were administered by intraperitoneal (IP) injection (0.5 mL). Test compounds were dissolved in phosphate buffered saline (PBS) and concentration adjusted for animal weight. Actual drug concentrations in formulated doses were verified by quantitative nitrogen detection. Animals were dosed every 7 days for 21 days in most studies. In several studies, animals were dosed twice weekly (days 0, 4, 7, 10, 14, etc.). Tumor volume and animal weight were measured on days 0, 2, 4, 7, 9, 11, 14, 16, 18, 21, 23, 25, and 28. At the end of the study, animal blood was removed for analysis of liver and kidney function (BUN, creatine, AST and ALT; analytical measurements performed by Quality Clinical Labs). Tumor volume at the end of the study was calculated as a percentage of the tumor volume on day 0. The percent tumor growth inhibition was obtained from the ratio of the percentage tumor volume increase in drug treated animals to the percentage tumor volume increase in saline treated animals.

Calu-6 (Lung) xenograft = assay: In vivo tumor growth inhibition, mouse xenograft, Calu-6; set-up: species or system nude athymic CD-1 mice; details: IP
Description: as §3, §5

[3] = test system: ME180 (Cervical) xenograft; assay: In vivo tumor growth inhibition, mouse xenograft, ME180; set-up: species or system nude athymic CD-1 mice; details: IP
Description: as §3, §5

[4] = test system: several different tumor types; assay: In vivo tumor growth inhibition, overall statement; set-up: species or system nude athymic CD-1 mice; details: mouse xenografts, compared with cisplatin, oxaliplatin, carboplatin
Description: as §3, §4

[5] = Determination of maximum tolerated dose (MTD); assay type: in vivo, nude mice; details: for Therapeutic Index MTD/Min Eff: ratio of maximum tolerated dose to minimally effective dose
Description: To determine the maximum tolerated doses for compound (54) relative to clinically used platinum anticancer agents, nude mice were injected with increasing drug doses (0.5 mL, intraperitoneally) on days 0, 7, and 14. […] The therapeutic index of a given drug is defined as the ratio of the maximum tolerated dose to the minimally effective dose.

[6] = HT29, 0 mM phloridzen, read-out: GI50 of Uptake in HT29 Cells, 0 mM Phoridzen
[7] = HT29, 0.2 mM phloridzen, read-out: GI50 of Uptake in HT29 Cells, 0.2 mM Phoridzen
[8] = HT29, 0.5 mM phloridzen, read-out: GI50 of Uptake in HT29 Cells, 0.5 mM Phoridzen
[9] = HT29, 1.0 mM phloridzen, read-out: GI50 of Uptake in HT29 Cells, 1.0 mM Phoridzen

SMILES | GI50 (Calu-6 cells) | GI50 (H69AR cells) | GI50 (HT29 cells [1]) | GI50 (ME180 cells) | GI50 (PC3 cells) | GI50 (TUR cells) | Therapeutic Index MTD/Min Eff [5] | also measured
O=C(CCCC1C(=O)[O][Pt]2([NH]C3CCCCC3[NH]2)[O]C1=O)NCC1OC(O)C(O)C(O)C1O [(54), [1R,2R-Cyclohexanediamine-N,N′][{3-(α,β-D-Galactopyranos-6-ylamido)propyl}propanedioato(2-)-O,O′]Platinum (II)] | 185 µM | 77 µM | 238 µM | 15 µM | 85 µM | 9 µM | 12.7 | GI50 (HT29 cells [2]; [6]): 385 µM; GI50 (HT29 cells [2]; [7]): 574 µM; GI50 (HT29 cells [2]; [8]): 759 µM; GI50 (HT29 cells [2]; [9]): > 1000 µM; Effect of increasing concentrations of phloridzen on cytotoxic effects (HT29 cells [2]; HT29, 48 hours, in words): block the cytotoxic effects; Percent Tumor Growth Inhibition PC3 (Prostate) (PC3 (Prostate) xenograft): 82%; Percent Tumor Growth Inhibition HT29 (Colon) (HT29 (Colon) xenograft; 75 mg/kg (2/week)): 74%; Percent Tumor Growth Inhibition HT29 (Colon) (HT29 (Colon) xenograft; 100 mg/kg): 63%; Percent Tumor Growth Inhibition Calu-6 (Lung) (Calu-6 (Lung) xenograft; 50 mg/kg (2/week)): 73%; Percent Tumor Growth Inhibition Calu-6 (Lung) (Calu-6 (Lung) xenograft; 100 mg/kg): 42%; Percent Tumor Growth Inhibition Calu-6 (Lung) (Calu-6 (Lung) xenograft; 500 mg/kg): 81%; Percent Tumor Growth Inhibition ME180 (Cervical) ([3]; 50 mg/kg (2/week)): 24%; Percent Tumor Growth Inhibition ME180 (Cervical) ([3]; 75 mg/kg (2/week)): 24%; Percent Tumor Growth Inhibition ME180 (Cervical) ([3]; 100 mg/kg): 18%; Percent Tumor Growth Inhibition ME180 (Cervical) ([3]; 500 mg/kg): 68%; Inhibition of tumor growth in vivo, in words [4]: effective in inhibiting growth of several different tumor types in vivo; Therapeutic index relative to cisplatin, carboplatin, oxaliplatin, in words ([5]; in words): dramatically improved therapeutic index
O=C(CCCC1C(=O)[O][Pt]2([NH]C3CCCCC3[NH]2)[O]C1=O)NC1C(O)OC(CO)C(O)C1O [(79), [1R,2R-Cyclohexanediamine-N,N′][{3-(α,β-D-Glucopyranos-2-yl-amido)propyl}propanedioato(2-)-O,O′]Platinum (II)] |  | 55 µM | 124 µM |  | 67 µM | 15 µM |  | Percent Tumor Growth Inhibition PC3 (Prostate) (PC3 (Prostate) xenograft): 48%
NC1CCCCC1N.O=C1[O][Pt][O]C(=O)C1CCC1OC(CO)C(O)C(O)C1O [(88), [1R,2R-Cyclohexanediamine-N,N′][{2-(α,β-D-Glucopyranos-1-yl)ethyl}propanedioato(2-)-O,O′]Platinum (II)] | 260 µM | 98 µM | 226 µM | 13 µM | 112 µM | 31 µM |  | 
O=C1[O][Pt]2([NH]C3CCCCC3[NH]2)[O]C(=O)C1CCC1OC(CO)C(O)C(O)C1O (stereo not shown) [(93)] | 139 µM | 78 µM | 178 µM | 7 µM | 69 µM | 20 µM |  | 
N.N.O=C([O-])C1(C(=O)[O-])CCC1.[Pt+2] [Carboplatin, reference compound] | 712 µM | 94 µM | 515 µM | 64 µM | 290 µM | 123 µM | 2.3 | Percent Tumor Growth Inhibition HT29 (Colon) (HT29 (Colon) xenograft; 100 mg/kg): 47%; Percent Tumor Growth Inhibition Calu-6 (Lung) (Calu-6 (Lung) xenograft; 100 mg/kg): 56%; Percent Tumor Growth Inhibition ME180 (Cervical) ([3]; 100 mg/kg): 25%
N.N.[Cl][Pt][Cl] [Cisplatin, reference compound] | 149 µM | 4 µM | 30 µM | 1 µM | 31 µM | 10 µM |  | GI50 (HT29 cells [2]; [6]): 261 µM; GI50 (HT29 cells [2]; [7]): 194 µM; GI50 (HT29 cells [2]; [8]): 192 µM; GI50 (HT29 cells [2]; [9]): 254 µM; Percent Tumor Growth Inhibition HT29 (Colon) (HT29 (Colon) xenograft; 2 mg/kg): 69%
O=C1[O][Pt]2([NH][C@@H]3CCCC[C@H]3[NH]2)[O]C1=O [Oxaliplatin, oxaliplatin, reference compound] | 52 µM | 60 µM | 133 µM | 28 µM | 113 µM | 42 µM | 2.0 | Percent Tumor Growth Inhibition HT29 (Colon) (HT29 (Colon) xenograft; 5 mg/kg): 40%
